# Data as given in PubChem BioAssay (NCI).
#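 A five-concentration, 48-hour dose response in 96-well plates underlies each endpoint, interpolated linearly between surrounding concentrations. GI50: concentration for 50% inhibition of growth. TGI marks complete inhibition of growth.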
# Columns and labels:
# Assay in all cases: inhibition of tumour cell growth, NCI panel, 48 h
# [1] = system: PC-3 prostate
# [2] = system: OVCAR-4 ovarian
# [3] = system: SF-539 CNS
# [4] = system: CCRF-CEM leukemia
# [5] = system: HT29 colon
# [6] = system: CAKI-1 renal
# [7] = system: SK-OV-3 ovarian
# [8] = system: LOX IMVI melanoma
# [9] = system: 786-0 renal
# [10] = system: HCC-2998 colon
Compound,GI50 [1] [µM],TGI [1] [µM],GI50 [2] [µM],TGI [2] [µM],TGI [3] [µM],GI50 [4] [µM],TGI [4] [µM],GI50 [5] [µM],TGI [5] [µM],GI50 [6] [µM],TGI [6] [µM],GI50 [7] [µM],TGI [7] [µM],GI50 [8] [µM],TGI [8] [µM],GI50 [9] [µM],TGI [9] [µM],GI50 [3] [µM],TGI [10] [µM],GI50 [10] [µM]
Cc1[nH]n(-c2cccc(Cl)c2)c(=O)c1/C=C1\C=c2ccccc2=CC1=O,> 100,> 100,> 100,> 100,> 100,97.5,> 100,> 100,> 100,> 100,> 100,26.5,> 100,> 100,> 100,21.5,86.6,–,–,–
Cc1ccc(S(=O)(=O)CC2(Br)CCc3ccccc3C2=O)cc1 (stereo not given),–,> 100,–,50,> 100,–,–,–,58.6,–,53.4,–,> 100,–,> 100,–,> 100,–,–,–
CC(=O)C(C=O)C(C)=O.CC(=O)CC(C)=O.CC(=O)CC(C)=O.[Ru],13.2,71.2,19.5,> 100,26.3,5.62,21.8,21,> 100,27.5,72.4,76.8,> 100,13.6,80.3,37.3,> 100,3.8,–,–
COC(CC1(OC)OC(=O)C=C1N)OC (stereo not given),–,–,–,> 100,> 100,–,> 100,–,> 100,–,–,–,> 100,–,> 100,–,> 100,–,> 100,–
CCCc1n(Cc2ccc3ccccc3n2)cc[n+]1Cc1ccc2ccccc2n1,1.85,14.7,0.445,18.3,13.4,2.72,28.3,1.61,11.4,–,–,2.44,9.68,2.43,10.9,11.2,24.2,2.14,14.8,0.985
CCCCCCSc1nc(COC(=O)NC)c(COC(=O)NC)n1C,–,> 100,–,> 100,> 100,–,> 100,–,> 100,–,> 100,–,> 100,–,> 100,–,> 100,–,–,–
CC1CC(c2ccc(Cl)c(Cl)c2)=Nc2ccccc2S1 (stereo not given),–,–,–,> 100,> 100,–,> 100,–,> 100,–,> 100,–,> 100,–,> 100,–,> 100,–,> 100,–
NC(=O)c1cc([N+](=O)[O-])cc([N+](=O)[O-])c1,–,–,–,> 100,> 100,–,> 100,–,> 100,–,> 100,–,> 100,–,> 100,–,> 100,–,–,–
COC(=O)C1=C(\O)C[C@@]2(C)CC[C@@H](C(=O)OC)C2C/C=C\1C(=O)OC (stereo not given in full),–,–,–,> 100,38.8,–,> 100,–,> 100,–,> 100,–,> 100,–,> 100,–,> 100,–,> 100,–
O=C(/C=C/c1ccc(O)cc1)c1cc(Cl)ccc1O,–,–,–,> 100,44.9,–,44.8,–,> 100,–,> 100,–,> 100,–,56.2,–,> 100,–,> 100,–
O=C(CSc1ncc(-c2ccccc2)n1-c1ccccc1)Nc1ccc(-c2nc3ccccc3s2)cc1,> 100,> 100,–,–,> 100,> 100,> 100,–,–,4.21,> 100,55.7,> 100,5.31,> 100,5.34,> 100,6.25,> 100,> 100
c1ccc2c(c1)N=C(c1ccc3ccccc3c1)CC(c1cccc3ccccc13)S2 (stereo not given),–,–,–,> 100,> 100,–,33.5,–,> 100,–,> 100,–,> 100,–,> 100,–,> 100,–,40.3,–
N#CC1C(=O)NC(=O)C1=O (stereo not given),–,–,–,> 100,> 100,–,–,–,> 100,–,> 100,–,> 100,–,> 100,–,> 100,–,> 100,–
CCCCCCCCCCCC(=O)OC(COC(N)=O)COc1ccc(Cl)cc1 (stereo not given),–,–,–,40.9,66.4,–,35.9,–,40.6,–,44.3,–,> 100,–,55,–,> 100,–,96.1,–
COC(=O)NC(=O)c1cn(C2CCCCC2)c(=O)[nH]c1=O,–,–,–,> 100,> 100,–,> 100,–,> 100,–,> 100,–,> 100,–,> 100,–,> 100,–,> 100,–
O=C1N=C(Nc2nc(-c3csc(NC4=NC(=O)/C(=C\c5ccc(Cl)cc5)S4)n3)cs2)S/C1=C/c1ccc(Cl)cc1,8.78,49,–,–,46.2,–,–,23.6,> 50,20,> 50,–,–,8.34,> 50,1.6,12,15.4,45.2,13.3
Cc1cn2c(/C=C3/C(=O)Nc4ccc(Cl)cc43)c(C)nc2s1,0.0447,–,> 39.3,> 54,0.692,–,–,–,> 56.8,0.741,–,0.384,24.2,0.0706,54.5,< 0.0403,31.1,0.124,1.04,< 0.024
CC12CC(=O)C3C(CCC4=CC(=O)CCC43C)C1CC=C2CC(=O)O (stereo not given),–,> 100,–,> 100,> 100,–,> 100,–,> 100,–,> 100,–,> 100,–,> 100,–,> 100,–,–,–
COc1ccc2c(c1)N(CCO)C1=C(C(=O)OC1)C2c1ccc(OC)c(OC)c1 (stereo not given),3.03,> 100,4.77,> 100,–,3.99,> 100,2.73,7.51,3.05,> 100,4.13,> 100,4.89,> 100,3.98,> 100,–,> 100,2.61
